# Patent US7109234B2, “Benzoxathiepine derivatives and their use as medicines” (Pierre Fabre Medicament, priority 2001, dated 2006)
# Structures can show the parent of a compound that is named as a salt.
row,SMILES,melting point [°C]
1,"COc1ccccc1SC[C@@H](C)CN[C@@H]1COc2ccc(C)cc2SC1 (as salt: maleate) [Compound 1-14, 3-(R)-[3-(2-Methoxyphenylthio)-2-(S)-methylpropyl]amino-7-methyl-3,4-dihydro-2H-1,5-benzoxathiepine]",148
2,"COc1ccccc1SC[C@@H](C)CN[C@@H]1COc2cccc(C)c2SC1 (as salt: maleate) [Compound 1-15, 3-(R)-[3-(2-Methoxyphenylthio)-2-(S)-methylpropyl]amino-6-methyl-3,4-dihydro-2H-1,5-benzoxathiepine]",111 to 113
3,"C[C@@H](CN[C@@H]1COc2ccccc2SC1)CSc1cccc2c1OCC2 (as salt: maleate) [Compound 1-16, 3-(R)-[3-(2,3-Dihydrobenzofuran-7-thio)-2-(S)-methylpropyl]amino-3,4-dihydro-2H-1,5-benzoxathiepine]",116 to 118
4,"Cc1cccc(SC[C@@H](C)CN[C@@H]2COc3ccccc3SC2)c1O (as salt: maleate) [Compound 1-17, 3-(R)-[3-(2-Hydroxy-3-methylphenylthio)-2-(S)-methylpropyl]amino-3,4-dihydro-2H-1,5-benzoxathiepine]",124 to 126
5,"C[C@@H](CN[C@@H]1COc2ccccc2SC1)CSc1ccccc1O (as salt: maleate) [Compound 1-18, 3-(R)-[3-(2-Hydroxyphenylthio)-2-(S)-methylpropyl]amino-3,4-dihydro-2H-1,5-benzoxathiepine]",119 to 121
6,"CCc1cccc(SC[C@@H](C)CN[C@@H]2COc3ccccc3SC2)c1O (as salt: maleate) [Compound 1-19, 3-(R)-[3-(2-Hydroxy-3-ethylphenylthio)-2-(S)-methylpropyl]amino-3,4-dihydro-2H-1,5-benzoxathiepine]",120
7,"Cc1cccc(SC[C@H](CN[C@@H]2COc3ccccc3SC2)C(C)C)c1O (as salt: maleate) [Compound 1-21, 3-(R)-[3-(2-Hydroxy-3-methylphenylthio)-2-(S)-(isopropyl)propyl]amino-3,4-dihydro-2H-1,5-benzoxathiepine]",127
8,"Cc1cccc(SC[C@@H](C)CN[C@@H]2COc3cccc(C)c3SC2)c1O (as salt: maleate) [Compound 1-22, 3-(R)-[3-(2-Hydroxy-3-methylphenylthio)-2-(S)-methylpropyl]amino-6-methyl-3,4-dihydro-2H-1,5-benzoxathiepine]",108 to 109
9,"COc1cccc(SC[C@@H](C)CN[C@@H]2COc3ccccc3SC2)c1OC (as salt: maleate) [Compound 1-24, 3-(R)-[3-(2,3-Dimethoxyphenylthio)-2-(S)-methylpropyl]amino-3,4-dihydro-2H-1,5-benzoxathiepine]",117 to 119
10,"CC(C)c1cccc(SC[C@@H](C)CN[C@@H]2COc3ccccc3SC2)c1O (as salt: maleate) [Compound 1-25, 3-(R)-[3-(2-Hydroxy-3-(isopropyl)phenylthio)-2-(S)-methylpropyl]amino-3,4-dihydro-2H-1,5-benzoxathiepine]",126
11,"Cc1cccc(O)c1SC[C@@H](C)CN[C@@H]1COc2ccccc2SC1 (as salt: maleate) [Compound 1-26, 3-(R)-[3-(2-Hydroxy-6-methylphenylthio)-2-(S)-methylpropyl]amino-3,4-dihydro-2H-1,5-benzoxathiepine]",153 to 154
12,"Oc1ccccc1SC[C@@H](O)CN[C@@H]1COc2ccccc2SC1 (as salt: oxalate) [Compound 1-3, 3-(R)-[3-(2-Hydroxyphenylthio)-2-(S)-hydroxypropyl]amino-3,4-dihydro-2H-1,5-benzoxathiepine]",176 to 177
13,"Oc1ccccc1SC[C@H](O)CN[C@@H]1COc2ccccc2SC1 (as salt: oxalate) [Compound 1-4, 3-(R)-[3-(2-Hydroxyphenylthio)-2-(R)-hydroxypropyl]amino-3,4-dihydro-2H-1,5-benzoxathiepine]",135

# Now from value to compound:
row,melting point [°C],SMILES
1,86 to 88,"CC[C@@H](CN[C@@H]1COc2ccccc2SC1)CSc1ccccc1OC (as salt: fumarate) [Compound 1-9, 3-(R)-[3-(2-Methoxyphenylthio)-2-(S)-ethylpropyl]amino-3,4-dihydro-2H-1,5-benzoxathiepine]"
2,122,"COc1ccccc1SC[C@H](CN[C@@H]1COc2ccccc2SC1)OC (as salt: maleate) [Compound 1-1, 3-(R)-[3-(2-Methoxyphenylthio)-2-(S)-methoxypropyl]amino-3,4-dihydro-2H-1,5-benzoxathiepine]"
3,116,"COc1ccccc1SC[C@@H](CN[C@@H]1COc2ccccc2SC1)OC (as salt: maleate) [Compound 1-2, 3-(R)-[3-(2-Methoxyphenylthio)-2-(R)-methoxypropyl]amino-3,4-dihydro-2H-1,5-benzoxathiepine]"
4,133 to 135,"COc1ccccc1SC[C@@H](O)CN[C@@H]1COc2ccccc2SC1 (as salt: maleate) [Compound 1-5, 3-(R)-[3-(2-Methoxyphenylthio)-2-(S)-hydroxypropyl]amino-3,4-dihydro-2H-1,5-benzoxathiepine]"
5,136 to 138,"COc1ccccc1SC[C@H](O)CN[C@@H]1COc2ccccc2SC1 (as salt: maleate) [Compound 1-6, 3-(R)-[3-(2-Methoxyphenylthio)-2-(R)-hydroxypropyl]amino-3,4-dihydro-2H-1,5-benzoxathiepine]"
6,140,"CC[C@H](CN[C@@H]1COc2ccccc2SC1)CSc1ccccc1OC (as salt: maleate) [Compound 1-10, 3-(R)-[3-(2-Methoxyphenylthio)-2-(R)-ethylpropyl]amino-3,4-dihydro-2H-1,5-benzoxathiepine]"
7,132 to 133,"CCC[C@@H](CN[C@@H]1COc2ccccc2SC1)CSc1ccccc1OC (as salt: maleate) [Compound 1-11, 3-(R)-[3-(2-Methoxyphenylthio)-2-(S)-(n-propyl)propyl]amino-3,4-dihydro-2H-1,5-benzoxathiepine]"
8,131 to 133,"CCC[C@H](CN[C@@H]1COc2ccccc2SC1)CSc1ccccc1OC (as salt: maleate) [Compound 1-12, 3-(R)-[3-(2-Methoxyphenylthio)-2-(R)-(n-propyl)propyl]amino-3,4-dihydro-2H-1,5-benzoxathiepine]"
9,114 to 115,"COc1ccccc1SC[C@H](CN[C@@H]1COc2ccccc2SC1)C(C)C (as salt: maleate) [Compound 1-13, 3-(R)-[3-(2-Methoxyphenylthio)-2-(S)-(isopropyl)propyl]amino-3,4-dihydro-2H-1,5-benzoxathiepine]"
10,111 to 112,"CC[C@@H](CN[C@@H]1COc2ccccc2SC1)CSc1cccc(C)c1O (as salt: maleate) [Compound 1-20, 3-(R)-[3-(2-Hydroxy-3-methylphenylthio)-2-(S)-ethylpropyl]amino-3,4-dihydro-2H-1,5-benzoxathiepine]"
11,137 to 139,"COc1cccc(SC[C@@H](C)CN[C@@H]2COc3ccccc3SC2)c1O (as salt: maleate) [Compound 1-23, 3-(R)-[3-(2-Hydroxy-3-methoxyphenylthio)-2-(S)-methylpropyl]amino-3,4-dihydro-2H-1,5-benzoxathiepine]"
